{
  "source": "PubChem BioAssay AID1259409",
  "about": "(Chemical Carcinogenesis Research Information System (CCRIS), 2018)",
  "origin": "cited, not measured here",
  "test_system": "rodent chemically induced tumor inhibition, incidence and multiplicity",
  "test": "CCRIS tumor inhibitor studies",
  "description": "The CCRIS database contains chemical records with carcinogenicity, mutagenicity, tumor promotion, and tumor inhibition test results. It was developed by the National Cancer Institute (NCI). Data are derived from studies cited in primary journals, current awareness tools, NCI reports, and other sources. Test results have been reviewed by experts in carcinogenesis and mutagenesis.\nCCRIS provides historical information from the years 1985 - 2011. It is no longer updated.\nThis is an archive assay for CCRIS tumor inhibitor studies.",
  "note": "Where “and” joins values, the source holds several entries; their conditions need not be identical. Equal entries are not always repeated.",
  "data": [
    {"compound": "COc1cc(/C=C/C(=O)O)ccc1O", "values": [
      {"measurement": "tumour outcome (control, treated, inhibition, significance)", "setting": "Carcinogen: 4-NITROQUINOLINE-1-OXIDE [56-57-5], Dose [Inhibitor]: 500 PPM IN DIET FOR 7 WK BEGINNING 1 WK PRIOR TO FIRST CARCINOGEN DOSE (STUDY DURATION: 32 WK), Route [Inhibitor]: ORAL, Species: RAT, Strain/Sex: F344/MALE, Target Tissue: Type of Lesion: TONGUE: PAPILLOMA OR CARCINOMA, Dose [Carcinogen]: 20 PPM IN DRINKING WATER FOR 5 WK (STUDY DURATION: 32 WK), Promoter: NONE", "value": "9/15 (60%), 3/14 (21%), 65%, p<0.05"},
      {"measurement": "tumour outcome (control, treated, inhibition, significance)", "setting": "Carcinogen: 4-NITROQUINOLINE-1-OXIDE, 56-57-5, Dose [Inhibitor]: 0, 500 PPM IN DIET FOR 7 WK BEGINNING 1 WK PRIOR TO START OF CARCINOGEN TREATMENT (STUDY DURATION: 32 WK), Route [Inhibitor]: ORAL, Species: RAT, Strain/Sex: F344/MALE, Target Tissue: Type of Lesion: TONGUE: PAPILLOMA, Dose [Carcinogen]: 20 PPM IN DRINKING WATER FOR 5 WK, Promoter: NONE USED", "value": "1/15 (7%), 2/14 (14%), -100%, not significant"},
      {"measurement": "tumour outcome (control, treated, inhibition, significance)", "setting": "Carcinogen: 7,12-DIMETHYLBENZ[A]ANTHRACENE, 57-97-6, Dose [Inhibitor]: 0, 5 MG IN 200 µL ACETONE 2/WK BEGINNING 10 D POST CARCINOGEN DOSE APPLIED 30-40 MIN PRIOR TO EACH PROMOTER DOSE (STUDY, Route [Inhibitor]: DERMAL, Species: MOUSE, Strain/Sex: ICR/FEMALE, Target Tissue: Type of Lesion: SKIN: PAPILLOMA, Dose [Carcinogen]: 200 NMOL IN 200 µL ACETONE ONCE, Promoter: 12-O-TETRADECANOYLPHORBOL-13-ACETATE, 16561-29-8", "value": "100%, 94%, 6%, not significant and 100%, 65%, 35%, not calculated"},
      {"measurement": "tumour outcome (control, treated, inhibition, significance)", "setting": "Carcinogen: 7,12-DIMETHYLBENZ[A]ANTHRACENE, 57-97-6, Dose [Inhibitor]: 10 UMOL IN 200 µL ACETONE/DMSO (90:10) 2/WK FOR 19 WK BEGINNING 1 WK POST CARCINOGEN DOSE (STUDY DURATION: 20 WK), Route [Inhibitor]: DERMAL, Species: MOUSE, Strain/Sex: CD-1/FEMALE, Target Tissue: Type of Lesion: SKIN: PAPILLOMA, Dose [Carcinogen]: 200 NMOL IN 200 µL ACETONE ONCE, Promoter: 12-O-TETRADECANOYLPHORBOL-13-ACETATE, 16561-29-8", "value": "68%, 64%, 6%, not calculated"},
      {"measurement": "tumour outcome (control, treated, inhibition, significance)", "setting": "Carcinogen: 7,12-DIMETHYLBENZ[A]ANTHRACENE, 57-97-6, Dose [Inhibitor]: 50 UMOL IN 200 µL ACETONE/DMSO (90:10) 2/WK FOR 19 WK BEGINNING 1 WK POST CARCINOGEN DOSE (STUDY DURATION: 20 WK), Route [Inhibitor]: DERMAL, Species: MOUSE, Strain/Sex: CD-1/FEMALE, Target Tissue: Type of Lesion: SKIN: PAPILLOMA, Dose [Carcinogen]: 200 NMOL IN 200 µL ACETONE ONCE, Promoter: 12-O-TETRADECANOYLPHORBOL-13-ACETATE, 16561-29-8", "value": "68%, 13%, 81%, not calculated"},
      {"measurement": "tumour outcome (control, treated, inhibition, significance)", "setting": "Carcinogen: AZOXYMETHANE [25843-45-2], Dose [Inhibitor]: 0, 250 PPM IN DIET FOR 12 WK (STUDY DURATION: 35 WK), Route [Inhibitor]: ORAL, Species: RAT, Strain/Sex: F344/MALE, Target Tissue: Type of Lesion: INTESTINE: TUMOR, Dose [Carcinogen]: 15 MG/KG 3X/WK FOR 12 WK (STUDY DURATION: 35 WK), Promoter: NONE", "value": "64%, 32%, 50%, p<0.05"},
      {"measurement": "tumour outcome (control, treated, inhibition, significance)", "setting": "Carcinogen: AZOXYMETHANE [25843-45-2], Dose [Inhibitor]: 0, 250 PPM IN DIET FOR 12 WK (STUDY DURATION: 35 WK), Route [Inhibitor]: ORAL, Species: RAT, Strain/Sex: F344/MALE, Target Tissue: Type of Lesion: SMALL INTESTINE: TUMOR, Dose [Carcinogen]: 15 MG/KG 3X/WK FOR 12 WK (STUDY DURATION: 35 WK), Promoter: NONE", "value": "18%, 5%, 72%, not significant"},
      {"measurement": "tumour outcome (control, treated, inhibition, significance)", "setting": "Carcinogen: AZOXYMETHANE [25843-45-2], Dose [Inhibitor]: 0, 250 PPM IN DIET FOR 23 WK BEGINNING POST LAST CARCINOGEN DOSE (STUDY DURATION: 35 WK), Route [Inhibitor]: ORAL, Species: RAT, Strain/Sex: F344/MALE, Target Tissue: Type of Lesion: INTESTINE: TUMOR, Dose [Carcinogen]: 15 MG/KG 3X/WK FOR 12 WK (STUDY DURATION: 35 WK), Promoter: NONE", "value": "64%, 41%, 36%, p<0.05"},
      {"measurement": "tumour outcome (control, treated, inhibition, significance)", "setting": "Carcinogen: AZOXYMETHANE [25843-45-2], Dose [Inhibitor]: 0, 250 PPM IN DIET FOR 23 WK BEGINNING POST LAST CARCINOGEN DOSE (STUDY DURATION: 35 WK), Route [Inhibitor]: ORAL, Species: RAT, Strain/Sex: F344/MALE, Target Tissue: Type of Lesion: LARGE INTESTINE: TUMOR, Dose [Carcinogen]: 15 MG/KG 3X/WK FOR 12 WK (STUDY DURATION: 35 WK), Promoter: NONE", "value": "11%, 36%, -227%, not significant"},
      {"measurement": "tumour outcome (control, treated, inhibition, significance)", "setting": "Carcinogen: AZOXYMETHANE [25843-45-2], Dose [Inhibitor]: 0, 250 PPM IN DIET FOR 23 WK BEGINNING POST LAST CARCINOGEN DOSE (STUDY DURATION: 35 WK), Route [Inhibitor]: ORAL, Species: RAT, Strain/Sex: F344/MALE, Target Tissue: Type of Lesion: SMALL INTESTINE: TUMOR, Dose [Carcinogen]: 15 MG/KG 3X/WK FOR 12 WK (STUDY DURATION: 35 WK), Promoter: NONE", "value": "18%, 18%, 0%, not significant"},
      {"measurement": "tumour outcome (control, treated, inhibition, significance)", "setting": "Carcinogen: AZOXYMETHANE [25843-45-2], Dose [Inhibitor]: 0, 500 PPM IN DIET FOR 12 WK (STUDY DURATION: 35 WK), Route [Inhibitor]: ORAL, Species: RAT, Strain/Sex: F344/MALE, Target Tissue: Type of Lesion: INTESTINE: TUMOR, Dose [Carcinogen]: 15 MG/KG 3X/WK FOR 12 WK (STUDY DURATION: 35 WK), Promoter: NONE", "value": "64%, 32%, 50%, p<0.05"},
      {"measurement": "tumour outcome (control, treated, inhibition, significance)", "setting": "Carcinogen: AZOXYMETHANE [25843-45-2], Dose [Inhibitor]: 0, 500 PPM IN DIET FOR 12 WK (STUDY DURATION: 35 WK), Route [Inhibitor]: ORAL, Species: RAT, Strain/Sex: F344/MALE, Target Tissue: Type of Lesion: LARGE INTESTINE: TUMOR, Dose [Carcinogen]: 15 MG/KG 3X/WK FOR 12 WK (STUDY DURATION: 35 WK), Promoter: NONE", "value": "11%, 27%, -146%, not significant"},
      {"measurement": "tumour outcome (control, treated, inhibition, significance)", "setting": "Carcinogen: AZOXYMETHANE [25843-45-2], Dose [Inhibitor]: 0, 500 PPM IN DIET FOR 12 WK (STUDY DURATION: 35 WK), Route [Inhibitor]: ORAL, Species: RAT, Strain/Sex: F344/MALE, Target Tissue: Type of Lesion: SMALL INTESTINE: TUMOR, Dose [Carcinogen]: 15 MG/KG 3X/WK FOR 12 WK (STUDY DURATION: 35 WK), Promoter: NONE", "value": "18%, 5%, 72%, not significant"},
      {"measurement": "tumour outcome (control, treated, inhibition, significance)", "setting": "Carcinogen: AZOXYMETHANE [25843-45-2], Dose [Inhibitor]: 0, 500 PPM IN DIET FOR 23 WK BEGINNING POST LAST CARCINOGEN DOSE (STUDY DURATION: 35 WK), Route [Inhibitor]: ORAL, Species: RAT, Strain/Sex: F344/MALE, Target Tissue: Type of Lesion: INTESTINE: TUMOR, Dose [Carcinogen]: 15 MG/KG 3X/WK FOR 12 WK (STUDY DURATION: 35 WK), Promoter: NONE", "value": "64%, 41%, 36%, not significant"}
    ]}
  ]
}
